What was measured:
[1] = Example 3: pharmacokinetics of Compound 1 and RTV at a range of RTV doses; conditions: RTV in plasma, mean (CV %); for AUC / Cmax / half-life: both, human; for AUC: AUCtau
[2] = Example 1: pharmacokinetics of Compound 1 alone and with RTV in healthy subjects; assay type: in vivo, human
From the text: The study was an open-label, fixed-sequence, crossover, pharmacokinetic study with 12 subjects. The subjects were healthy males and non-pregnant, nonlactating females between 18 and 45 years of age, inclusive. The duration of the study was 20 days, with Period 1 of Days 1 to 10 and Period 2 of days 11 to 20. Follow-up contact was on day 27.

[3] = both, human, in vivo
[4] = tested on: hepatic cytochrome P450 3A (CYP3A) activity; assay: Example 3: IV midazolam probe for CYP3A activity at a range of RTV doses
Description: (§1) The effects of a range of RTV doses (20, 50, 100, and 200 mg once daily) on hepatic cytochrome P450 3A (CYP3A) activity were also evaluated using a CYP3A substrate.
(§2) For MDZ: AUC0-last, AUCinf, % AUCexp, Clast, Tlast, λ, T1/2, CL and Vz.
(§3) The population mean slope was estimated along with a corresponding 90% CI. This study was performed in compliance with the guidelines of Good Clinical Practices (GCPs).

CYP3A (hepatic) = assay: as above; conditions: human, plasma, iv, probe midazolam; for AUC(0-inf): AUCinf (mean); for clearance: CL (mean); for half-life: Half-life (mean)
Description: as §1, §2, §3

[5] = Example 5: safety of zidovudine and Compound 1/r; assay type: in vivo, human
From the text: (§4) Zidovudine is a NRTI used in HIV patients.
(§5) PK parameters were estimated using WinNonlin™ 5.0.1 (Pharsight Corporation, Mountain View, Calif., USA).

[6] = Example 5: drug-drug interaction of zidovudine and Compound 1/r
From the text: as §4, §5

[7] = plasma, oral, Compound 1 125 mg + 20 mg RTV QD
[8] = plasma, oral, Compound 1 125 mg + 50 mg RTV QD
[9] = plasma, oral, Compound 1 125 mg + 200 mg RTV QD

CC(C)c1nc(CN(C)C(=O)N[C@H](C(=O)N[C@@H](Cc2ccccc2)C[C@H](O)[C@H](Cc2ccccc2)NC(=O)OCc2cncs2)C(C)C)cs1 [Ritonavir, (2S,3S,5S)-5-(N-(N-((N-Methyl-N-((2-isopropyl-4-thiazolyl)methyl)amino)-carbonyl)-L-valinyl)amino)-2-(N-((5-thiazolyl)methoxycarbonyl)amino)-1,6-diphenyl-3-hydroxyhexane, reference compound]
Ctau ([1]; Compound 1 125 mg + 20 mg RTV QD): 0.718 (98.8) ng/ml | Ctau ([1]; Compound 1 125 mg + 50 mg RTV QD): 11.6 (66.2) ng/ml | Ctau ([1]; Compound 1 125 mg + 100 mg RTV QD): 53.8 (41.6) ng/ml | Ctau ([1]; Compound 1 125 mg + 200 mg RTV QD): 78.5 (36.7) ng/ml | AUC ([1]; in vivo, Compound 1 125 mg + 100 mg RTV QD): 6550 ng·h/mL | AUC [1, 7]: 135 ng·h/mL | AUC [1, 8]: 1120 ng·h/mL | AUC [1, 9]: 16000 ng·h/mL | Cmax [1, 7]: 19.5 ng/mL | Cmax [1, 8]: 130 ng/mL | Cmax [1, 9]: 2460 ng/mL | half-life [1, 7]: 4.74 h | half-life [1, 8]: 6.54 h | half-life ([1]; plasma, oral, Compound 1 125 mg + 100 mg RTV QD): 6.34 h | half-life [1, 9]: 5.71 h | half-life ([2]; both sexes, human, plasma, oral, 100 mg, ritonavir in plasma, Day 11, single dose RTV 100 mg with Compound 1, median): 5.1 h | AUC(0-inf) ([2]; both sexes, human, plasma, oral, 100 mg, read-out: AUC (AUCinf)): 4980 ng·h/mL | AUC ([2]; both sexes, human, plasma, oral, ritonavir in plasma, Day 20, RTV 100 mg + Compound 1 100 mg twice daily, mean, read-out: AUC (AUCtau)): 9400 ng·h/mL | Ctau ([2]; ritonavir in plasma, Day 11, single dose RTV 100 mg with Compound 1, mean): 219.8 ng/mL | Ctau ([2]; ritonavir in plasma, Day 20, RTV 100 mg + Compound 1 100 mg twice daily, mean): 544.8 ng/mL | Dose proportionality of RTV exposures [3]: RTV exposures not dose-proportional, very low exposures at 20 mg with BLQ concentrations (<0.5 ng/ml) by 16 hr in some subjects

Cc1ncc2n1-c1ccc(Cl)cc1C(c1ccccc1F)=NC2 [MDZ, midazolam]
Clast (mean) ([4]; MDZ 1 mg IV alone): 0.20 ng/mL | Clast (mean) ([4]; MDZ 1 mg IV, +20 mg RTV): 1.53 ng/mL | Clast (mean) ([4]; MDZ 1 mg IV, +50 mg RTV): 2.51 ng/mL | Clast (mean) ([4]; MDZ 1 mg IV, +100 mg RTV): 3.34 ng/mL | Clast (mean) ([4]; MDZ 1 mg IV, +200 mg RTV): 2.58 ng/mL | AUC(0-inf) (CYP3A (hepatic); 1 mg, MDZ 1 mg IV alone, Day 1): 31 ng·h/mL | clearance (CYP3A (hepatic); 1 mg, MDZ 1 mg IV alone): 7.45 mL/min/kg | half-life (CYP3A (hepatic); 1 mg, MDZ 1 mg IV alone): 3.97 h | AUC(0-inf) (CYP3A (hepatic); MDZ 1 mg IV, +20 mg RTV QD (with Compound 1 125 mg)): 101 ng·h/mL | AUC(0-inf) (CYP3A (hepatic); MDZ 1 mg IV, +50 mg RTV QD (with Compound 1 125 mg)): 145 ng·h/mL | AUC(0-inf) (CYP3A (hepatic); MDZ 1 mg IV, +100 mg RTV QD (with Compound 1 125 mg)): 219 ng·h/mL | AUC(0-inf) (CYP3A (hepatic); MDZ 1 mg IV, +200 mg RTV QD (with Compound 1 125 mg)): 146 ng·h/mL | clearance (CYP3A (hepatic); MDZ 1 mg IV, +20 mg RTV): 2.38 mL/min/kg | clearance (CYP3A (hepatic); MDZ 1 mg IV, +50 mg RTV): 1.5 mL/min/kg | clearance (CYP3A (hepatic); MDZ 1 mg IV, +100 mg RTV): 1.2 mL/min/kg | clearance (CYP3A (hepatic); MDZ 1 mg IV, +200 mg RTV): 1.45 mL/min/kg | half-life (CYP3A (hepatic); MDZ 1 mg IV, +20 mg RTV): 7.83 h | half-life (CYP3A (hepatic); MDZ 1 mg IV, +50 mg RTV): 14.4 h | half-life (CYP3A (hepatic); MDZ 1 mg IV, +100 mg RTV): 22.4 h | half-life (CYP3A (hepatic); MDZ 1 mg IV, +200 mg RTV): 15.2 h

Cc1cn([C@H]2C[C@H](N=[N+]=[N-])[C@@H](CO)O2)c(=O)[nH]c1=O [ZDV, zidovudine]
Tolerability ([5]; Compound 1/r 200/100 mg QD and ZDV 300 mg BID, alone and in combination): generally well tolerated | Safety of co-administration ([5]; zidovudine co-administered with Compound 1/r): safe and well tolerated | AUCtau, Cmax, Ctau (Compound 1 only) 90% CI of GMR (co-administration: alone) ([6]; Compound 1/r 200/100 mg QD + ZDV 300 mg BID, with a meal, bounds 70% to 143%): within predefined PK equivalence bounds | Pharmacokinetic drug-drug interaction ([6]; in vivo): no clinically relevant pharmacokinetic drug-drug interaction
